# Data from the supplement of paper PMC7840683.
# ± gives the standard deviation of the averaged measurements.
# System: HepaRG
# Test: LDH release cytotoxicity, % of total lysis control; higher = more cytotoxic
# Conditions: 48 h
# Procedure, shortened: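 Eight-point half-log series of test chemicals, the highest at 100 µM, were given in duplicate for 48 h to single-lot HepaRG cells on collagen I-coated 96-well plates in serum-free induction medium with 0.5% DMSO. A Tecan Safire read resorufin fluorescence from CytoTox-ONE as a measure of LDH in 50 µL spent medium, with 0.1% Triton X in total lysis wells. Percent cytotoxicity was normalized to on-plate vehicle and total lysis controls and averaged over the duplicates.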
Structure (SMILES),LDH release cytotoxicity (0.03162 µM),LDH release cytotoxicity (0.1 µM),LDH release cytotoxicity (0.3162278 µM),LDH release cytotoxicity (1 µM),LDH release cytotoxicity (3.16228 µM),LDH release cytotoxicity (10 µM),LDH release cytotoxicity (31.6228 µM),LDH release cytotoxicity (100 µM),LDH release cytotoxicity (0.031623 µM),LDH release cytotoxicity (0.316228 µM)
"O=C(O)CCCOc1ccc(Cl)cc1Cl [2,4-Dichlorophenoxybutyric acid]",-2.25 ± 0.88%,-0.951 ± 0.37%,-1.77 ± 0.11%,-1.33 ± 0.28%,-1.43 ± 0.78%,-0.351 ± 0.14%,-1.14 ± 0.056%,0.81 ± 0.16%,,
"Cc1ccc(O)c(C)c1 [2,4-Dimethylphenol]",-0.236 ± 0.8%,-1.06 ± 0.065%,-0.554 ± 0.3%,-0.084 ± 0.78%,0.0582 ± 0.56%,-0.172 ± 0.66%,-0.59 ± 0.59%,-0.251 ± 0.47%,,
"O=[N+]([O-])c1ccc(O)c([N+](=O)[O-])c1 [2,4-Dinitrophenol]",-0.273 ± 0.077%,-1.23 ± 0.39%,-0.515 ± 0.069%,-1 ± 0.71%,-0.876 ± 0.33%,0.105 ± 0.71%,0.264 ± 0.47%,0.252 ± 0.21%,,
"CC(C)(C)c1cc(O)c(C(C)(C)C)cc1O [2,5-Di-tert-butylbenzene-1,4-diol]",-1.42 ± 0.46%,-1.56 ± 0.33%,-1.72 ± 1.2%,-1.69 ± 0.27%,-1.49 ± 0.41%,-1.94 ± 0.31%,-1.04 ± 0.88%,-1.46 ± 0.39%,,
"CC(C)(C)OOC(C)(C)CCC(C)(C)OOC(C)(C)C [2,5-Dimethyl-2,5-di-(tert-butylperoxy)hexane]",-1.07 ± 0.59%,-0.939 ± 1%,-0.841 ± 0.2%,-0.347 ± 0.56%,-0.34 ± 0.39%,-0.223 ± 0.53%,1.22 ± 1.1%,2.2 ± 1.6%,,
"Cc1ccc(C)c(O)c1 [2,5-Dimethylphenol]",-1.02 ± 1%,-1.37 ± 0.38%,-1.74 ± 0.34%,-1.34 ± 0.19%,-1.4 ± 0.44%,-0.854 ± 0.043%,-0.822 ± 0.1%,0.0909 ± 0.18%,,
"CN(C)CCCN(C)CCCN(C)C [2,6,10-Trimethyl-2,6,10-triazaundecane]",-1.25 ± 0.61%,-1.63 ± 0.4%,-2.17 ± 0.18%,-1.73 ± 0.24%,-1.82 ± 0.067%,-1.78 ± 0.98%,-0.82 ± 0.7%,-0.216 ± 0.84%,,
"CC(C)(C)c1cccc(C(C)(C)C)c1O [2,6-Di-tert-butylphenol]",-1.46 ± 0.98%,-2.07 ± 0.79%,-1.81 ± 0.93%,-2.85 ± 0.3%,-2.37 ± 0.99%,-2.01 ± 0.62%,-2.37 ± 1.6%,-2.35 ± 1.9%,,
"CCc1cccc(CC)c1N [2,6-Diethylaniline]",-1.27 ± 1.1%,-2.24 ± 0.81%,-1.42 ± 0.19%,-0.395 ± 0.46%,-0.592 ± 0.21%,-1.25 ± 1.1%,-0.819 ± 0.47%,-0.482 ± 0.8%,,
"Cc1cccc(C)c1N [2,6-Dimethylaniline]",-1.3 ± 1.2%,-0.274 ± 0.54%,-0.695 ± 1.3%,-2 ± 0.2%,-1.29 ± 0.67%,-1.03 ± 0.33%,-0.842 ± 0.55%,3.28 ± 2.6%,,
"Cc1cccc(C)c1O [2,6-Dimethylphenol]",-1.24 ± 1.2%,-0.897 ± 0.56%,-1.931 ± 0.0097%,-1.91 ± 0.97%,-1.66 ± 0.091%,-1.73 ± 0.19%,-0.524 ± 1.1%,0.122 ± 0.94%,,
"CC(C)c1cccc(C(C)C)c1N1C(=O)c2ccc(O)cc2C1=O [2-(2,6-Diisopropylphenyl)-5-hydroxy-1H-isoindole-1,3-dione]",0.356 ± 0.042%,0.0666 ± 0.077%,-0.376 ± 0.57%,-0.99 ± 0.87%,-0.278 ± 0.47%,-0.287 ± 0.3%,-0.0632 ± 1%,0.492 ± 1.2%,,
CCCCOCCOCCO [2-(2-Butoxyethoxy)ethanol],-0.987 ± 0.27%,-1.94 ± 0.23%,-1.79 ± 0.24%,-2.09 ± 0.25%,-2.29 ± 0.05%,-1.67 ± 0.18%,-1.25 ± 0.3%,-0.813 ± 0.4%,,
CCOCCOCCO [2-(2-Ethoxyethoxy)ethanol],0.116 ± 0.16%,-1.88 ± 0.064%,-1.03 ± 0.55%,-1.82 ± 0.14%,-1.06 ± 0.26%,-0.761 ± 0.11%,-0.843 ± 0.34%,-0.504 ± 0.29%,,
CCC(C)c1ccccc1O (configuration not stated) [2-(Butan-2-yl)phenol],,-1.12 ± 0.63%,,-2.96 ± 1.4%,-3.27 ± 0.89%,-1.71 ± 1%,-1.22 ± 1.5%,0.802 ± 0.9%,-0.239 ± 0.71%,-2.25 ± 1.2%
"O=[N+]([O-])C(CO)(CO)CO [2-(Hydroxymethyl)-2-nitro-1,3-propanediol]",0.0153 ± 0.39%,-1.5 ± 0.4%,-1.73 ± 0.99%,-0.843 ± 0.29%,-0.932 ± 1.1%,-1.24 ± 1.2%,-0.797 ± 0.24%,0.918 ± 1.3%,,
CCCCCCC(C=O)=Cc1ccccc1 [2-(Phenylmethylene)octanal],-1.15 ± 0.14%,-2.83 ± 0.43%,-1.02 ± 0.77%,-1.91 ± 0.42%,-1.53 ± 0.26%,-0.899 ± 0.63%,-0.688 ± 1.8%,-0.668 ± 0.88%,,
N#CSCSc1nc2ccccc2s1 [2-(Thiocyanomethylthio)benzothiazole],-0.587 ± 0.32%,-0.847 ± 0.58%,-0.155 ± 0.13%,-0.646 ± 0.61%,0.021 ± 0.2%,-0.312 ± 0.2%,-0.754 ± 0.77%,1.03 ± 0.038%,,
Nc1ccc2c(c1)C(=O)c1ccccc1C2=O [2-Aminoanthraquinone],-1.78 ± 0.3%,-1.65 ± 0.022%,-1.65 ± 0.11%,-1.44 ± 0.32%,-1.62 ± 0.56%,-1.05 ± 0.29%,-1.21 ± 0.022%,-0.125 ± 0.23%,,
